# Source: ChEMBL document CHEMBL5370521, “New miconazole-based azoles derived from eugenol show activity against Candida spp. and Cryptococcus gattii by inhibiting the fungal ergosterol biosynthesis” (Eur J Med Chem, 2023)
# Calls of active or inactive are those of the source. No cut-off for these calls is given here.
# Legend:
# [1] = test system: Candida albicans; experiment: Antifungal activity against Candida albicans SC5314 assessed as inhibition of fungal growth at highest concentration incubated for 24 to 48 hrs by CLSI protocol based broth microdilution method; format: functional, organism-based; details: time 24-48 hrs
# [2] = test system: Pichia kudriavzevii; experiment: Antifungal activity against Candida krusei ATCC 20298 assessed as inhibition of fungal growth at highest concentration incubated for 24 to 48 hrs by CLSI protocol based broth microdilution method; format: functional, organism-based; details: time 24-48 hrs
# [3] = Cytotoxicity against H9c2 cells assessed as inhibition of cell proliferation incubated for 72 hrs by resazurin dye based microplate reader analysis; format: toxicity; details: rat
# [4] = test system: [Candida] auris; experiment: Antifungal activity against Candida auris COLO 01 A assessed as inhibition of fungal growth at highest concentration incubated for 24 to 48 hrs by CLSI protocol based broth microdilution method; format: functional, organism-based; details: Candidozyma auris, time 24-48 hrs
# [5] = test system: Nakaseomyces glabratus; experiment: Antifungal activity against Candida glabrata ATCC 2001 assessed as inhibition of fungal growth at highest concentration incubated for 24 to 48 hrs by CLSI protocol based broth microdilution method; format: functional, organism-based; details: time 24-48 hrs
# [6] = test system: Candida parapsilosis; experiment: Antifungal activity against Candida parapsilosis ATCC 22019 assessed as inhibition of fungal growth at highest concentration incubated for 24 to 48 hrs by CLSI protocol based broth microdilution method; format: functional, organism-based; details: time 24-48 hrs
# [7] = test system: Cryptococcus gattii VGI; experiment: Antifungal activity against Cryptococcus gattii ATCC 24065 assessed as inhibition of fungal growth at highest concentration incubated for 24 to 48 hrs by CLSI protocol based broth microdilution method; format: functional; details: time 24-48 hrs
# [8] = test system: Candida tropicalis; experiment: Antifungal activity against Candida tropicalis ATCC 750 assessed as inhibition of fungal growth at highest concentration incubated for 24 to 48 hrs by CLSI protocol based broth microdilution method; format: functional, organism-based; details: time 24-48 hrs
# [9] = Antifungal activity against Cryptococcus gattii ATCC 24065 assessed as inhibition of fungal growth incubated for 24 to 48 hrs by CLSI protocol based broth microdilution method; format: functional, Cryptococcus gattii VGI; details: time 24-48 hrs
# [10] = test system: Candida tropicalis; experiment: Antifungal activity against Candida tropicalis ATCC 750 assessed as inhibition of fungal growth incubated for 24 to 48 hrs by CLSI protocol based broth microdilution method; format: functional; details: time 24-48 hrs
# [11] = test system: Candida albicans; experiment: Antifungal activity against Candida albicans SC5314 assessed as inhibition of fungal growth incubated for 24 to 48 hrs by CLSI protocol based broth microdilution method; format: functional; details: time 24-48 hrs
# [12] = test system: [Candida] auris; experiment: Antifungal activity against Candida auris COLO 01 A assessed as inhibition of fungal growth incubated for 24 to 48 hrs by CLSI protocol based broth microdilution method; format: functional; details: Candidozyma auris, time 24-48 hrs
# [13] = test system: Pichia kudriavzevii; experiment: Antifungal activity against Candida krusei ATCC 20298 assessed as inhibition of fungal growth incubated for 24 to 48 hrs by CLSI protocol based broth microdilution method; format: functional; details: time 24-48 hrs
# [14] = test system: Candida parapsilosis; experiment: Antifungal activity against Candida parapsilosis ATCC 22019 assessed as inhibition of fungal growth incubated for 24 to 48 hrs by CLSI protocol based broth microdilution method; format: functional; details: Lodderomyces parapsilosis, time 24-48 hrs
# [15] = biological target: T1, Lanosterol 14-alpha demethylase (Candida albicans (strain SC5314 / ATCC MYA-2876) (Yeast), UniProt P10613); experiment: Inhibition of CYP51 in Candida albicans SC5314 assessed as reduction in ergosterol level at 3 fold MIC incubated overnight by spectrophotometric analysis
# [16] = biological target: T1, Lanosterol 14-alpha demethylase; experiment: Inhibition of CYP51 in Candida albicans SC5314 assessed as reduction in ergosterol level at 2 fold MIC incubated overnight by spectrophotometric analysis
# [17] = test system: Nakaseomyces glabratus; experiment: Antifungal activity against Candida glabrata ATCC 2001 assessed as inhibition of fungal growth incubated for 24 to 48 hrs by CLSI protocol based broth microdilution method; format: functional; details: time 24-48 hrs
# [18] = Selectivity index, ratio of CC50 for cytotoxicity against […] H9c2 cells to MIC for antifungal activity against Candida tropicalis ATCC 750; format: toxicity, cell-based; details: read-out: Selectivity Index
# [19] = test system: [Candida] auris; experiment: Potency index, ratio of fluconazole MIC to test compound MIC for antifungal activity against Candida auris COLO 01 A assessed as inhibition of fungal growth incubated for 24 to 48 hrs by CLSI protocol based broth microdilution method; format: functional, Candidozyma auris; details: time 24-48 hrs
# [20] = Selectivity index, ratio of CC50 for cytotoxicity against […] H9c2 cells to MIC for antifungal activity against Candida glabrata ATCC 2001; format: toxicity, cell-based; details: rat, read-out: Selectivity Index
# [21] = Selectivity index, ratio of CC50 for cytotoxicity against […] H9c2 cells to MIC for antifungal activity against Candida krusei ATCC 20298; format: toxicity, cell-based; details: read-out: Selectivity Index
# [22] = Selectivity index, ratio of CC50 for cytotoxicity against […] H9c2 cells to MIC for antifungal activity against Candida auris COLO 01 A; format: toxicity, cell-based; details: read-out: Selectivity Index
# [23] = Selectivity index, ratio of CC50 for cytotoxicity against […] H9c2 cells to MIC for antifungal activity against Cryptococcus gattii ATCC 24065; format: toxicity, cell-based; details: rat, read-out: Selectivity Index
# [24] = Selectivity index, ratio of CC50 for cytotoxicity against […] H9c2 cells to MIC for antifungal activity against Candida parapsilosis ATCC 22019; format: toxicity, cell-based; details: read-out: Selectivity Index
# [25] = test system: Candida albicans; experiment: Potency index, ratio of miconazole MIC to test compound MIC for antifungal activity against Candida albicans SC5314 assessed as inhibition of fungal growth incubated for 24 to 48 hrs by CLSI protocol based broth microdilution method; format: functional; details: time 24-48 hrs
# [26] = Selectivity index, ratio of CC50 for cytotoxicity against […] H9c2 cells to MIC for antifungal activity against Candida albicans SC5314; format: toxicity, cell-based; details: read-out: Selectivity Index
# [27] = test system: [Candida] auris; experiment: Potency index, ratio of miconazole MIC to test compound MIC for antifungal activity against Candida auris COLO 01 A assessed as inhibition of fungal growth incubated for 24 to 48 hrs by CLSI protocol based broth microdilution method; format: functional, Candidozyma auris; details: time 24-48 hrs
# T1 sequence (P10613 whole entry): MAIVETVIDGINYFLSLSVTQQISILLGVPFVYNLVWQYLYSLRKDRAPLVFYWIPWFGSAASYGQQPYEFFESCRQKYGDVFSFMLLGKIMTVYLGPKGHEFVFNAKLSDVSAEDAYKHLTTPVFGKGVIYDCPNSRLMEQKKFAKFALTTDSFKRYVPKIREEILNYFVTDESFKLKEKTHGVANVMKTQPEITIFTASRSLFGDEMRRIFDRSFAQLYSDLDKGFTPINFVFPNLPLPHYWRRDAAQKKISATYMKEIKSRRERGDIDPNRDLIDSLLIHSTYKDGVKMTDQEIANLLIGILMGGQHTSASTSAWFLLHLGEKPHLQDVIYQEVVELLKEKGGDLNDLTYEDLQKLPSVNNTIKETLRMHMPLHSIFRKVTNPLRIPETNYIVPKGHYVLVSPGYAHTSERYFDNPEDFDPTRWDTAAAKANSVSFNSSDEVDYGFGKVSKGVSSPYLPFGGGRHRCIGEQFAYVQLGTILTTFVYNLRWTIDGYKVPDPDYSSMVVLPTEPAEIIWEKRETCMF
SMILES,Activity [1],Activity [2],CC50 at 72 h [3] [µM],Activity [4],Activity [5],Activity [6],Activity [7],Activity [8],MIC [9] [µM],MIC [17] [µM],further results
C=CCc1ccc(OCC(Cn2cncn2)OC(=O)c2ccc(Cl)cc2)c(OC)c1 (configuration not stated),inactive,inactive,96.2,inactive,inactive,inactive,inactive,inactive,–,–,–
CCCc1ccc(OCC(O)Cn2cncn2)c(OC)c1 (configuration not stated),inactive,inactive,553,inactive,inactive,inactive,inactive,inactive,–,–,–
C=CCc1ccc(OCC(O)Cn2cncn2)c(OC)c1 (configuration not stated),inactive,inactive,541,inactive,inactive,inactive,inactive,inactive,–,–,–
CCCc1ccc(OCC(Cn2cncn2)OCc2ccc(Cl)cc2)c(OC)c1 (configuration not stated),inactive,inactive,40.1,inactive,inactive,inactive,inactive,inactive,–,–,–
C=CCc1ccc(OCC(O)Cn2ccnc2)c(OC)c1 (configuration not stated),inactive,inactive,644,inactive,inactive,inactive,inactive,inactive,–,–,–
OC(Cn1cncn1)(Cn1cncn1)c1ccc(F)cc1F [FLUCONAZOLE],–,–,–,–,–,–,–,–,13.1,13.1,MIC [10]: 0.8 µM; MIC [11]: 1.6 µM; MIC [12]: 209 µM; MIC [13]: 104 µM; MIC [14]: 3.3 µM; inhibition (INH) [15]: Active; inhibition (INH) [16]: Active
CCCc1ccc(OCC(Cn2ccnc2)OCc2ccc(Cl)cc2)c(OC)c1 (configuration not stated),–,–,44.2,–,–,–,–,–,18.8,37.6,selectivity ratio [18]: 0.6; Ratio [19]: >2; selectivity ratio [20]: 1.2; MIC [10]: 75.3 µM; MIC [11]: 18.8 µM; selectivity ratio [21]: 1.2; selectivity ratio [22]: 0.6; MIC [12]: 75.3 µM; MIC [13]: 37.6 µM; selectivity ratio [23]: 2.4; selectivity ratio [24]: 0.6; Ratio [25]: 8; MIC [14]: 75.3 µM; inhibition (INH) [15]: Active; inhibition (INH) [16]: Active; selectivity ratio [26]: 2.3
C=CCc1ccc(OCC(Cn2ccnc2)OC(=O)c2ccc(Cl)cc2)c(OC)c1 (configuration not stated),–,inactive,129,inactive,–,–,–,–,73.2,36.5,selectivity ratio [18]: 1.8; selectivity ratio [20]: 3.5; MIC [10]: 73.2 µM; MIC [11]: 4.6 µM; selectivity ratio [23]: 1.8; selectivity ratio [24]: 1.8; Ratio [25]: 32; MIC [14]: 73.2 µM; inhibition (INH) [15]: Active; selectivity ratio [26]: 28.2
C=CCc1ccc(OCC(Cn2ccnc2)OCc2ccc(Cl)cc2)c(OC)c1 (configuration not stated),inactive,inactive,33.6,inactive,–,inactive,–,inactive,18.9,36.8,selectivity ratio [20]: 0.9; selectivity ratio [23]: 1.8
CCCc1ccc(OCC(Cn2ccnc2)OC(=O)c2ccc(Cl)cc2)c(OC)c1 (configuration not stated),inactive,inactive,35.5,–,–,inactive,–,inactive,72.7,36.4,Ratio [19]: >5; selectivity ratio [20]: 0.9; selectivity ratio [22]: 0.9; MIC [12]: 36.4 µM; selectivity ratio [23]: 0.5; Ratio [27]: 2
CCCc1ccc(OCC(Cn2cncn2)OC(=O)c2ccc(Cl)cc2)c(OC)c1 (configuration not stated),inactive,inactive,35.4,inactive,inactive,inactive,inactive,inactive,–,–,–
C=CCc1ccc(OCC(Cn2cncn2)OCc2ccc(Cl)cc2)c(OC)c1 (configuration not stated),inactive,inactive,52.9,inactive,inactive,inactive,inactive,inactive,–,–,–
Clc1ccc(COC(Cn2ccnc2)c2ccc(Cl)cc2Cl)c(Cl)c1 (configuration not stated) [MICONAZOLE],–,–,–,–,–,–,–,–,9.4,1.2,MIC [10]: 31.2 µM; MIC [11]: 150 µM; MIC [12]: 74.9 µM; MIC [13]: 18.7 µM; MIC [14]: 7.8 µM
CCCc1ccc(OCC(O)Cn2ccnc2)c(OC)c1 (configuration not stated),inactive,inactive,453,inactive,inactive,inactive,inactive,inactive,–,–,–
